Data from ChEMBL document CHEMBL4373715, “Discovery and Biological Evaluations of Halogenated 2,4-Diphenyl Indeno[1,2-b]pyridinol Derivatives as Potent Topoisomerase IIα-Targeted Chemotherapeutic Agents for Breast Cancer” (J Med Chem, 2019).

Columns and labels:
DU-145 = experiment: Antiproliferative activity against human DU145 cells measured after 72 hrs by EZ-Cytox assay; assay type: functional, cell-based; conditions: DU-145, 72 h
HeLa = experiment: Antiproliferative activity against human HeLa cells measured after 72 hrs by EZ-Cytox assay; assay type: functional, cell-based
[1] = target: DNA topoisomerase 2-alpha (Homo sapiens) (UniProt P11388); experiment: Inhibition of recombinant human topoisomerase 2alpha-mediated relaxation of supercoiled pBR322 DNA at 20 uM measured after 30 mins by ethidium bromide staining based agarose gel electrophoresis relative to control
T47D = experiment: Antiproliferative activity against human T47D cells measured after 72 hrs by EZ-Cytox assay; assay type: functional, cell-based
HCT-15 = experiment: Antiproliferative activity against human HCT15 cells measured after 72 hrs by EZ-Cytox assay; assay type: functional, cell-based; conditions: HCT-15, 72 h
[2] = target: DNA topoisomerase 2-alpha (Homo sapiens) (UniProt P11388); experiment: Inhibition of recombinant human topoisomerase 2alpha-mediated relaxation of supercoiled pBR322 DNA at 100 uM measured after 30 mins by ethidium bromide staining based agarose gel electrophoresis relative to control
[3] = target: T1, DNA topoisomerase 1 (Homo sapiens) (UniProt P11387); experiment: Inhibition of recombinant human topoisomerase 1-mediated relaxation of supercoiled pBR322 DNA at 100 uM measured after 30 mins by ethidium bromide staining based agarose gel electrophoresis relative to control
T1 sequence (whole entry): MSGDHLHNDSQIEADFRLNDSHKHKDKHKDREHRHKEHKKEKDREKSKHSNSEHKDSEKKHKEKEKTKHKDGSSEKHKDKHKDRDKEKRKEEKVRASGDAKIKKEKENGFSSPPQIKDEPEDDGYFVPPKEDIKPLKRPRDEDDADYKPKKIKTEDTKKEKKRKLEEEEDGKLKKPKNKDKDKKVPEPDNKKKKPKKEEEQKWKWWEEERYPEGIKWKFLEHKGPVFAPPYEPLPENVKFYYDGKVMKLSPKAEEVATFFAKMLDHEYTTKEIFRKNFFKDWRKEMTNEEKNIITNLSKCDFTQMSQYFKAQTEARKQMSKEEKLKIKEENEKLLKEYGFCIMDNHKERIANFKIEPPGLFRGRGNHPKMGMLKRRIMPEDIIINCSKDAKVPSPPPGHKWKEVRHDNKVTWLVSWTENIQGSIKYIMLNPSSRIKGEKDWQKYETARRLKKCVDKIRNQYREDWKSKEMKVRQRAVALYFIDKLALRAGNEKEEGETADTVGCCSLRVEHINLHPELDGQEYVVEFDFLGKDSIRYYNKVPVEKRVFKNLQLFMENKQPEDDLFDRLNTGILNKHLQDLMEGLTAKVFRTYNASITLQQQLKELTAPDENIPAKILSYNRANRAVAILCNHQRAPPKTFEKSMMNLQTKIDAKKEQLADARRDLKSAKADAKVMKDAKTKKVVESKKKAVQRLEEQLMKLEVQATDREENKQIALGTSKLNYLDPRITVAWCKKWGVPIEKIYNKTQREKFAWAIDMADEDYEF

Sequence of DNA topoisomerase 2-alpha (Homo sapiens) (P11388 whole entry): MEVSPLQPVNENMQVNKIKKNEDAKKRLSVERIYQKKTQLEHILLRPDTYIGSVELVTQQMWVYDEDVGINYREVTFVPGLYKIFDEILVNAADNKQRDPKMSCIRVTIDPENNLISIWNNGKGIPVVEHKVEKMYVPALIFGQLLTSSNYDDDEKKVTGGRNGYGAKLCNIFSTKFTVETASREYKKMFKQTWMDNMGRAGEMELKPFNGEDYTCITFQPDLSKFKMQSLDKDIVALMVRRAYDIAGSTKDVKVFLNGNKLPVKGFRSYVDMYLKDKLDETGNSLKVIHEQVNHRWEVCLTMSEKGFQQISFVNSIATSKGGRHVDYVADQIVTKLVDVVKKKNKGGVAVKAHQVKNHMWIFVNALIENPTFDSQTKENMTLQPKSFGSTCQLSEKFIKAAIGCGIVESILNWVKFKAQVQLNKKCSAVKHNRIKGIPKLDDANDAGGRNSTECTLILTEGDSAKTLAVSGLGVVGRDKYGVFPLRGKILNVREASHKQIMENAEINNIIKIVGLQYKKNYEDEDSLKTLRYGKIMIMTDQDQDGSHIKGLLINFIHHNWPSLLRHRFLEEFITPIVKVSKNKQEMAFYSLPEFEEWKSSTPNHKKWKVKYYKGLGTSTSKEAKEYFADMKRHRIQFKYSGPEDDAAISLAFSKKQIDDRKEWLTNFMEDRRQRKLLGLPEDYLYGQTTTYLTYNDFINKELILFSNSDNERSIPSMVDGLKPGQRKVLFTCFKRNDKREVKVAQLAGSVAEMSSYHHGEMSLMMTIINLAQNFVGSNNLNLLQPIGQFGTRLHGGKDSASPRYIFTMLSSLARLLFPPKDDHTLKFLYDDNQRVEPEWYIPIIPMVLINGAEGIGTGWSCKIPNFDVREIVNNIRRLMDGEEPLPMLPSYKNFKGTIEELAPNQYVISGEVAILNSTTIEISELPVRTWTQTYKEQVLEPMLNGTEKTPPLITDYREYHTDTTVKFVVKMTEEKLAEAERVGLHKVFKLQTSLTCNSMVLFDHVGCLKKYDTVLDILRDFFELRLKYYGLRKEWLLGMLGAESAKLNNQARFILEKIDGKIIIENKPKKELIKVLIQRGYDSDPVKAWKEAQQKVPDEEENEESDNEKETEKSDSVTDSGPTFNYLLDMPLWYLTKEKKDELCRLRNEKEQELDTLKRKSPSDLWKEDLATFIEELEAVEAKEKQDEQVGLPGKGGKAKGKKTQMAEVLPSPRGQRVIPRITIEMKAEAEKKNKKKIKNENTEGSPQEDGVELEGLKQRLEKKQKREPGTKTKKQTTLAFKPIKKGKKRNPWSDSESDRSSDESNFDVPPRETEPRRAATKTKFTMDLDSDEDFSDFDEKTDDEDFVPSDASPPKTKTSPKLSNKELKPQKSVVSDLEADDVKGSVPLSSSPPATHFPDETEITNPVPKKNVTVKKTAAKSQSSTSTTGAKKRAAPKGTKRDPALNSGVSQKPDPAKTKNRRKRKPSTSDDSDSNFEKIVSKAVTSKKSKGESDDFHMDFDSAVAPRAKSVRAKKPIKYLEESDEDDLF

Compound | inhibition [1] | inhibition [2] | inhibition [3] | IC50 (DU-145) | IC50 (HeLa) | IC50 (T47D) | IC50 (HCT-15)
Oc1cccc(-c2cc(-c3cccc(F)c3)nc3c2Cc2c(O)cccc2-3)c1 | 5.6% | 43.2% | 9.8% | 2.37 µM | 7.04 µM | 0.89 µM | 4.9 µM
Oc1ccc(-c2cc(-c3ccccc3C(F)(F)F)nc3c2Cc2ccc(O)cc2-3)cc1 | 1.2% | 81% | 6.7% | 2.78 µM | 1.52 µM | 1.47 µM | 1.32 µM
Oc1ccc(-c2cc(-c3ccc(Cl)cc3)c3c(n2)-c2cccc(O)c2C3)cc1 | 7.5% | 97% | 1.3% | 1.81 µM | 18.3 µM | 12.8 µM | 9.1 µM
Oc1ccccc1-c1cc(-c2ccc(F)cc2)nc2c1Cc1cccc(O)c1-2 | 0% | 34.4% | 0% | 1.4 µM | 3.08 µM | 0.74 µM | 2.07 µM
Oc1ccccc1-c1cc(-c2ccccc2C(F)(F)F)nc2c1Cc1c(O)cccc1-2 | 1.8% | 83.7% | 3.5% | 1.38 µM | 3.95 µM | 3.02 µM | 1.74 µM
Oc1ccc(-c2cc(-c3ccc(C(F)(F)F)cc3)nc3c2Cc2cccc(O)c2-3)cc1 | 0% | 82.3% | 18.5% | 13.2 µM | > 50 µM | > 50 µM | > 50 µM
Oc1ccc(-c2cc(-c3ccc(Cl)cc3)c3c(n2)-c2c(O)cccc2C3)cc1 | 9.3% | 96.8% | 0% | > 50 µM | > 50 µM | > 50 µM | > 50 µM
Oc1cccc(-c2cc(-c3ccc(C(F)(F)F)cc3)nc3c2Cc2ccc(O)cc2-3)c1 | 5.1% | 100% | 0% | 3.18 µM | 3.63 µM | 1.8 µM | 2.95 µM

More lines, main results first:

inhibition [1] | inhibition [2] | inhibition [3] | Compound | IC50 (DU-145) | IC50 (HeLa) | IC50 (T47D) | IC50 (HCT-15)
24.9% | 100% | 0% | Oc1cccc(-c2cc(-c3ccccc3Cl)nc3c2Cc2c(O)cccc2-3)c1 | 0.92 µM | 0.59 µM | 1.53 µM | 0.8 µM
0% | 74.5% | 0% | Oc1ccc(-c2cc(-c3ccc(Cl)cc3)nc3c2Cc2ccc(O)cc2-3)cc1 | 2.25 µM | 1.73 µM | 1.15 µM | 3.22 µM
2.4% | 80.6% | 11.7% | Oc1cccc(-c2cc(-c3ccccc3C(F)(F)F)nc3c2Cc2cc(O)ccc2-3)c1 | 2.5 µM | 4 µM | 1.25 µM | 2.82 µM
3.4% | 86.1% | 0.4% | Oc1ccc2c(c1)-c1nc(-c3ccccc3C(F)(F)F)cc(-c3ccccc3O)c1C2 | 2.86 µM | 2.96 µM | 1.41 µM | 4.04 µM
0% | 95.4% | 4.6% | Oc1cccc(-c2cc(-c3ccccc3)nc3c2Cc2c(O)cccc2-3)c1 | 0.19 µM | 6.74 µM | 2.89 µM | 2.52 µM
2.1% | 54.2% | 2.1% | Oc1ccc2c(c1)Cc1c(-c3ccccc3)cc(-c3ccccc3)nc1-2 | 3.82 µM | 4.94 µM | 0.7 µM | 3.37 µM
3.4% | 74.3% | 1.6% | Oc1ccc2c(c1)Cc1c(-c3cccc(Cl)c3)cc(-c3ccccc3O)nc1-2 | > 50 µM | > 50 µM | > 50 µM | > 50 µM
2.2% | 75.3% | 6.1% | Oc1ccc(-c2cc(-c3cccc(Cl)c3)c3c(n2)-c2cccc(O)c2C3)cc1 | 1.64 µM | 1.66 µM | 1.92 µM | 2.39 µM
